Laboratory results from patent US20220211868A1, “NANOPARTICLES COMPRISING NON-CLASSICAL MHC AND USES THEREOF” (UTI Limited Partnership, priority 2019, published 2022).
Entries after “also recorded” stand apart in the source; their conditions may differ.

Key:
[1] = test system: CD11b+ APCs from liver-draining LNs and liver Kupffer cells; assay: Suppression of antigen presentation by APCs by liver iNKT cells from treated mice; type: cell-based, mouse; settings: APCs from untreated mice, FIG. 9
Description: (§1) Next the mechanisms of disease suppression were investigated.

B-cells = assay: Breg cell formation from transferred Il10-eGFP B cells in treated NOD.c3c4 mice; type: in vivo, mouse; settings: within 7 days of transfer; B-cells pulsed with αGalCer or not
Description: This was done by transferring αGalCer-pulsed or non-pulsed B cells carrying an eGFP transgene in the Il10 locus into αGalCer/CD1d-NP-treated or untreated NOD.c3c4 mice, and enumerated the frequency of transferred CD5+ and CD1d^high B-cells that acquired eGFP expression within 7 days. […] Thus, αGalCer/CD1d-NP treatment triggers iNKTR1 cell formation which then drive Breg cell formation by recognizing endogenous B-cell antigenic ligand(s) in a CD1d-restricted manner.

wild-type NOD.c3c4 mice = assay: Cytokine/cytokine receptor blockade of therapeutic activity in treated NOD.c3c4 mice; type: in vivo, mouse
iNKT cells = assay: Flow cytometry of iNKT cells (αGalCer/CD1d tetramer stained) from treated NOD.c3c4 mice; type: in vivo, mouse
Description: FIG. 3 illustrates the effect of treatment with αGalCer (KRN7000)/CD1d-coated NPs vs uncoated NPs on the CD4/CD8 phenotype of liver (top) and splenic (bottom) iNKT cells (stained with αGalCer (KRN7000)/CD1d tetramers).
FIG. 4 illustrates the effect of treatment with αGalCer (KRN7000)/CD1d-coated NPs vs uncoated NPs on the levels of PD1, CD49d, CD69 and LAG3 in liver iNKT cells (stained with αGalCer (KRN7000)/CD1d tetramers).

[2] = test system: liver iNKT cells, Kupffer cells and B-lymphocytes; assay: Spinning-disk confocal intravital microscopy of liver in Cxcr6GFP/+ Ifng-Delta-ARE+/- (NOD×B6) F1 mice; type: in vivo, mouse
Description: To get further insights into downstream cellular targets, spinning-disk confocal intravital microscopy was used to track αGalCer/CD1d-NP-induced iNKT cells, Kuppfer cells, and B-lymphocytes in the livers of treated and untreated Ifng-Delta-ARE^+/− (NOD×B6) F1 mice, which also develop spontaneous PBC-like disease. To track iNKT cells in vivo, Cxcr6^GFP/+ mice were used, in which 60-80% of liver eGFP+ cells are iNKT cells, the remainder being NK and T-cells (Geissmann et al., 2005; Liew et al., 2017). In sterile injury in the liver, recognition of endogenous glycolipid ligands on endothelial cells, Kupffer cells and other CD1d-expressing liver cells by iNKT cells result in the conversion of proinflammatory CCR2+ Ly6Chi monocytes into regulatory CX3CR1+ Ly6Clow monocytes, a process that is driven by iNKT-cell-derived IL-4. […] Although there were similar numbers of B-cells in the liver of untreated mice, they […] in interactions with Cxcr6+ cells to the same extent. […] See Lee, W. Y., et al. (2010). “An intravascular immune response to Borrelia burgdorferi involves Kupffer cells and iNKT cells” Nat. Immunol. 11, 295-302.

liver iNKT cells = assay: RNA sequencing (RNAseq) of liver iNKT cells sorted from treated vs. untreated NOD.c3c4 mice; type: in vivo, mouse
Description: FIG. 5 illustrates normalized RNA expression counts (±SEM) for iNKT-relevant genes in the liver iNKT cells of NOD.c3c4 mice treated with αGalCer (KRN7000)/CD1d-NPs vs. control NOD.c3c4 mice.
To investigate this, RNA sequencing (RNAseq) studies of liver iNKT cells sorted from αGalCer/CD1d-NP-treated vs. untreated NOD.c3c4 mice was performed. […] When considering genes known to be expressed in various iNKT cell subsets (Gapin, L. (2016). “Development of invariant natural killer T cells” Curr. Opin. Immunol. 39, 68-74) including iNKT1 (Zbtb16 (PLZF)-low, Tbx21 (Tbet)+, Gata3−, Rorc (RORgt)−, Foxp3−, Maf−, Cd24−, Cd44+, Klrb1 (NK1.1)+, Ifbg+, IL2−, Il4+, Il17−, Il10−, Il21−, Il2rb (Cd122)+, Mirlet7 (LET-7)+, Znf683 (HOBIT)-high), iNKT2 (Zbtb16-high, Tbx21−, Gata3+, Rorc−, Maf−, Foxp3−, Cd24−, Cd44+, Klrb1−, Ifng−, Il2−, Il4+, Il17−, Il10−, Il21−, Il17rb+, Tnfsf11 (RANKL)+; and iNKT17 (Zbtb16-int, Tbx21−, Gata3−, Rorc+, Foxp3−, Maf-low, Cd24−, Cd44+, Klrb1-low/−, Il2−, il4−, Ifng−, Il17+, Il10−, Il21−, Tgfbr2+, Tnfsf11+), the liver iNKT cells of non-treated NOD.c3c4 mice appeared to be rather unique (Zbtb16+, Tbx21+, Gata3+, Rorc-low, Foxp3−, Maf-low, Cd24-low, Cd44+, Klrb1+, Il2−, Il4-low, Ifng+, Il17−, Il10−, Il21−, Il2rb+, Il17rb-low, Tgfbr2+, Mirlet7−, Znf683−, Tnfsf11−). Remarkably, the liver iNKT cells from treated animals were somewhat similar to the latter, except that they were Rorc−, Maf-high, Il10-high, Il21-high, Il2rb+, Il17rb− and Tgfbr2-low. […] The liver iNKT cells of treated mice were also different from αGalCer-induced NKT10 cells, based on available gene expression data (Il10+, Klrb1-low, Nfil3+ (E4BP4, which regulates IL-10 and IL-13 expression), Nrp1+, Itga4+, Itgae−, Ctla4+, Fr4+, Bcl6−, Il7r+, Slamf6-high, Icos+) (Sag et al., 2014). Unlike these iNKT10 cells, the liver iNKT cells from treated mice were Nfli3−, Nrp1-low, Fr4−, Bcl6-low and Il7r-low. […] These observations were substantiated by comparing the liver iNKT RNAseq data from αGalCer/CD1d-NP-treated and untreated mice to iNKT1, iNKT2, iNKT10 and iNKT17 RNAseq data from Engel et al. (Engel, I., et al. (2016). “Innate-like functions of natural killer T cell subsets result from highly divergent gene programs” Nat. Immunol. 17, 728-739.) (FIG. 6A to 6D)
To ascertain if some of the gene expression differences that were observed between the liver iNKT cells of αGalCer/CD1d-NP-treated and untreated mice were driven, at least in part, by their unique transcriptional factor expression profile, which transcription factors were associated with expression of differentially expressed genes was determined.
Consequently, these αGalCer/CD1d-NP-induced liver iNKT cells are called iNKTR1 cells.

NOD.c3c4.scid mice = assay: Transfer of disease protection by liver iNKT cells to NOD.c3c4.scid mice reconstituted with diseased splenocytes; type: in vivo, mouse; settings: vs liver iNKT cells from control NOD.c3c4 donors; FIG. 10
Description: as §1

[3] = test system: spontaneous PBC-like disease in NOD.c3c4 mice; assay: Treatment of spontaneous PBC-like disease in NOD.c3c4 mice; type: in vivo, mouse; settings: FIG. 2
Description: FIG. 2 illustrates the effect of treatment with αGalCer (KRN7000)/CD1d-coated NPs vs soluble KRN7000 or uncoated NPs on readouts of PBC in NOD.c3c4 mice. CBD, Common Bile Duct.

[4] = flow cytometry, vs liver iNKT cells of control (untreated or Cys-NP-treated) mice, FIG. 4
[5] = treated NOD.c3c4 mice, not shown
[6] = RNAseq, negative in liver iNKT cells of untreated mice
[7] = RNAseq, treated mice, unlike iNKT10 cells
[8] = RNAseq, treated vs untreated mice

αGalCer/CD1d-NP: nanoparticles coupled to CD1d molecules whose binding groove is loaded with alpha-galactosylceramide (KRN7000)
suppression of presentation of IGRP206-214 peptide to cognate TCR-transgenic CD8+ T-cells [1]: could suppress
conversion of transferred B-cells into IL-10/eGFP-expressing CD1d-high/CD5+ Breg cells (B-cells): Breg cell formation in treated, but not untreated animals; also recorded: can trigger the conversion
effect of IL-21R blockade on therapeutic activity (wild-type NOD.c3c4 mice; mouse, in vivo): abrogated
inhibition of therapeutic activity by IFNγ blockade (wild-type NOD.c3c4 mice; wild-type NOD.c3c4 mice): not
inhibition of therapeutic activity by IL-4 blockade (wild-type NOD.c3c4 mice; wild-type NOD.c3c4 mice): to a lesser extent
inhibition of therapeutic activity by IL-10 blockade (wild-type NOD.c3c4 mice; wild-type NOD.c3c4 mice): partially inhibited
CD4/CD8 phenotype of splenic and liver-associated iNKT cells (iNKT cells; at the expense of CD4−CD8− iNKT cells, FIG. 3): enriched for CD4+CD8− iNKTs
CD69 level on iNKT cells (iNKT cells; [4]): significantly higher levels
CD49d level on iNKT cells (iNKT cells; [4]): significantly higher levels
Lag-3 level on iNKT cells (iNKT cells; [4]): significantly higher levels
PD1 level on iNKT cells (iNKT cells; [4]): significantly higher levels
circulating frequency of iNKT cells (iNKT cells; [5]): slight increase
iNKT content in spleen and lymph nodes (liver-draining and not) (iNKT cells; [5]): slight decrease
B-cell killing through iNKT-B-cell interactions ([2]; 4 days after the last dose): did not appear to result in B-cell killing
interaction of liver iNKT cells with B-cells ([2]; 4 days after the last dose, anti-CD19 labelled B-cells): seeking and engaging
number of liver iNKT cells ([2]; bi-weekly treatment, vs untreated mice): massive increase
motility of liver iNKT cells ([2]; imaged 4 days after the last dose): highly motile
motility of liver iNKT cells ([2]; imaged within 4 hours of a dose): stopped moving
expression levels of compared genes in induced liver iNKT cells vs TR1 cells (liver iNKT cells; 66 genes, normalized gene counts, FIG. 8): highly similar levels of expression
genes with >4-fold differences in expression compared with TR1 cells (liver iNKT cells; FIG. 8, number of genes): 66
IL-10 (Il10) expression in liver iNKT cells (liver iNKT cells; RNA, treated vs untreated mice): high upregulation; also recorded: Il10-high; also recorded: several hundred-fold higher levels
IL-21 (Il21) expression in liver iNKT cells (liver iNKT cells; RNA, treated vs untreated mice): Il21-high; also recorded: high upregulation; also recorded: several hundred-fold higher levels
CTLA4 (Ctla4) expression in liver iNKT cells (liver iNKT cells; [6]): high levels; also recorded: high upregulation
Itga4 (CD49d) expression in liver iNKT cells (liver iNKT cells; [6]): high levels
Lag3 expression in liver iNKT cells (liver iNKT cells; [6]): high levels; also recorded: high upregulation
Slamf6 expression in liver iNKT cells (liver iNKT cells; [6]): high levels
Bcl6 expression in liver iNKT cells (liver iNKT cells; RNAseq, treated mice): Bcl6-low; also recorded: low levels
Ccr6 expression in liver iNKT cells (liver iNKT cells; RNAseq, treated mice): significantly downregulated
Il7r expression in liver iNKT cells (liver iNKT cells; RNAseq, treated mice): significantly downregulated; also recorded: Il7r-low
Itgae (CD103) expression in liver iNKT cells (liver iNKT cells; RNAseq, treated mice): significantly downregulated
Nrp1 expression in liver iNKT cells (liver iNKT cells; RNAseq, treated mice): Nrp1-low
Tnfrsf14 (BTLA) expression in liver iNKT cells (liver iNKT cells; RNAseq, treated mice): significantly downregulated
Fr4 expression in liver iNKT cells (liver iNKT cells; [7]): Fr4−
Nfil3 expression in liver iNKT cells (liver iNKT cells; [7]): Nfli3−
Cxcr5 expression in liver iNKT cells (liver iNKT cells; RNAseq, treated mice, unlike iNKT-FH cells): lack expression
Gata3 expression in liver iNKT cells (liver iNKT cells; [8]): significantly upregulated
PD1 expression in liver iNKT cells (liver iNKT cells; [8]): high upregulation
TIGIT expression in liver iNKT cells (liver iNKT cells; [8]): high upregulation
Vdr expression in liver iNKT cells (liver iNKT cells; [8]): significantly upregulated
c-maf (Maf) expression in liver iNKT cells (liver iNKT cells; [8]): high upregulation; also recorded: Maf-high; also recorded: significantly upregulated
Il2rb expression in liver iNKT cells (liver iNKT cells; RNAseq, untreated: Il2rb+): Il2rb+
Il17rb expression in liver iNKT cells (liver iNKT cells; RNAseq, untreated: Il17rb-low): Il17rb−
Rorc expression in liver iNKT cells (liver iNKT cells; RNAseq, untreated: Rorc-low): Rorc−
Tgfbr2 expression in liver iNKT cells (liver iNKT cells; RNAseq, untreated: Tgfbr2+): Tgfbr2-low
differentially expressed genes shared by the TR1 cells (liver iNKT cells; of 238, comparison of RNA-seq profiles): 91
differentially expressed genes also upregulated in cognate TR1-like CD4+ T-cells of pMHCII-NP-treated mice (liver iNKT cells; of 238, number of genes): 138
downregulated genes co-regulated by Maf, Gata3 and Vdr (liver iNKT cells; of the 71 downregulated, FIG. 7): none
upregulated protein-coding genes co-regulated by Maf, Gata3 and Vdr (liver iNKT cells; of the 135 upregulated, FIG. 7): 66
differentially expressed genes also upregulated in cognate TR1-like CD4+ T-cells of pMHCII-NP-treated mice (liver iNKT cells; share of 238 genes): 58%
number of differentially expressed genes in liver iNKT cells (liver iNKT cells; treated vs untreated mice): 238
number of downregulated protein-coding genes in liver iNKT cells (liver iNKT cells; treated vs untreated mice): 71
number of upregulated protein-coding genes in liver iNKT cells (liver iNKT cells; treated vs untreated mice): 135
transfer of disease protection by liver iNKT cells from treated mice (NOD.c3c4.scid mice): could transfer disease protection
effect on spontaneous PBC-like disease [3]: profound suppressive effect
